Assay results from ChEMBL document CHEMBL5260792, “Benzophenone: a ubiquitous scaffold in medicinal chemistry” (Medchemcomm, 2018).
pEC50, pIC50: −log10 of the molar value. Values after ≈ are worked out from the molar mass of the structure shown. Blank lines part the entries; values can stand above or below the molecule they belong to.

Assays:
[1] = Anti-inflammatory activity in human PBMC cells assessed as inhibition of LPS-induced […] production; format: functional, cell-based; details: for pIC50: Homo sapiens, PBMC
[2] = Anti-inflammatory activity in human PBMC cells assessed as inhibition of LPS-induced TNF-alpha production; format: functional, cell-based
[3] = system: Human immunodeficiency virus 1; experiment: Antiviral activity against HIV-1 harboring V108I/Y181C double mutant; format: functional, organism-based
[4] = system: Human immunodeficiency virus 1; experiment: Antiviral activity against HIV-1 harboring K103N/L100I double mutant; format: functional, organism-based
[5] = system: Human immunodeficiency virus 1; experiment: Antiviral activity against HIV-1 V108I mutant; format: functional, organism-based
[6] = system: Human immunodeficiency virus 1; experiment: Antiviral activity against HIV-1 harboring K103N/Y181C double mutant; format: functional, organism-based
[7] = system: Human immunodeficiency virus 1; experiment: Antiviral activity against HIV-1 harboring K103N/V108I double mutant; format: functional, organism-based
[8] = system: Human immunodeficiency virus 1; experiment: Antiviral activity against HIV-1 P225H mutant; format: functional, organism-based
[9] = system: Human immunodeficiency virus 1; experiment: Antiviral activity against HIV-1 P236L mutant; format: functional, organism-based
[10] = system: Human immunodeficiency virus 1; experiment: Antiviral activity against HIV-1 L100I mutant; format: functional, organism-based
[11] = system: Human immunodeficiency virus 1; experiment: Antiviral activity against HIV-1 Y188C mutant; format: functional, organism-based
[12] = system: Human immunodeficiency virus 1; experiment: Antiviral activity against HIV-1 V106I mutant; format: functional, organism-based
[13] = system: Human immunodeficiency virus 1; experiment: Antiviral activity against HIV-1 harboring K103N/P225H double mutant; format: functional, organism-based
[14] = system: Human immunodeficiency virus 1; experiment: Antiviral activity against HIV-1 Y181C mutant; format: functional, organism-based
[15] = system: Human immunodeficiency virus 1; experiment: Antiviral activity against HIV-1 assessed as reduction in virus-induced cytopathic effect; format: functional, organism-based
[16] = system: Human immunodeficiency virus 1; experiment: Antiviral activity against HIV-1 K101E mutant; format: functional, organism-based
[17] = system: Human immunodeficiency virus 1; experiment: Antiviral activity against HIV-1 E138K mutant; format: functional, organism-based
[18] = system: Human immunodeficiency virus 1; experiment: Antiviral activity against HIV-1 K103N mutant; format: functional, organism-based
[19] = system: Human immunodeficiency virus 1; experiment: Antiviral activity against HIV-1 G190A mutant; format: functional, organism-based
[20] = biological target: T1, Glutathione S-transferase A1 (Homo sapiens, UniProt P08263); experiment: Inhibition of recombinant human GSTA1-1
T1 sequence (P08263 whole entry): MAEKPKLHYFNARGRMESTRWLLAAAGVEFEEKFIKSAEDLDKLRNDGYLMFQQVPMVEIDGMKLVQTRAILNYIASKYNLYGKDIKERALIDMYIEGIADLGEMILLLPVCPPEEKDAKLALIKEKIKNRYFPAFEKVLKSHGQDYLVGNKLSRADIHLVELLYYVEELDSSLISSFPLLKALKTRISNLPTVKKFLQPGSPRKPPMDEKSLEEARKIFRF

[21] = biological target: Mitogen-activated protein kinase 14 (Homo sapiens, UniProt Q16539); experiment: Inhibition of P38alphaMAPK (unknown origin)
[22] = system: MCF7; experiment: Antiproliferative activity against human MCF7 cells; format: functional, cell-based
[23] = system: Leishmania; experiment: Antileishmanial activity against Leishmania assessed as reduction in parasite growth; format: functional, organism-based
[24] = system: Human immunodeficiency virus 1; experiment: Antiviral activity against HIV-1; format: functional, organism-based
[25] = Inhibition of FTase (unknown origin) by Perkin elmer analysis; design: species or system Homo sapiens
[26] = system: Plasmodium falciparum; experiment: In vivo antiplasmodial activity against Plasmodium falciparum infected in mouse model; format: functional
[27] = system: Plasmodium falciparum; experiment: Antiplasmodial activity against Plasmodium falciparum assessed as reduction in parasite growth; format: functional, organism-based
[28] = system: CCRF-CEM; experiment: Antiproliferative activity against human CEM cells assessed as reduction in cell viability by MTT assay; format: functional, cell-based
[29] = system: K562; experiment: Antiproliferative activity against human K562 cells assessed as reduction in cell viability by MTT assay; format: functional, cell-based
[30] = system: Rattus norvegicus; experiment: Anti-hyperlipidemic activity in rat assessed as reduction in total cholesterol level at 15 mg/kg, po measured after 18 hrs; format: functional; design: scale not given: the % may be the effect or the level left
[31] = system: Rattus norvegicus; experiment: Anti-hyperlipidemic activity in rat assessed as reduction in triglyceride level at 15 mg/kg, po measured after 18 hrs; format: functional; design: scale not given: the % may be the effect or the level left
[32] = system: Ehrlich; experiment: Antiproliferative activity against mouse EAC cell expressing VEGF-A by MTT assay; format: functional, cell-based
[33] = Antiproliferative activity against mouse DLA cell expressing VEGF-A by MTT assay; format: functional, cell-based
[34] = Cytotoxicity against human HUVEC cells assessed as inhibition of cell growth; format: toxicity, cell-based

Chain of Mitogen-activated protein kinase 14 (Q16539 whole entry): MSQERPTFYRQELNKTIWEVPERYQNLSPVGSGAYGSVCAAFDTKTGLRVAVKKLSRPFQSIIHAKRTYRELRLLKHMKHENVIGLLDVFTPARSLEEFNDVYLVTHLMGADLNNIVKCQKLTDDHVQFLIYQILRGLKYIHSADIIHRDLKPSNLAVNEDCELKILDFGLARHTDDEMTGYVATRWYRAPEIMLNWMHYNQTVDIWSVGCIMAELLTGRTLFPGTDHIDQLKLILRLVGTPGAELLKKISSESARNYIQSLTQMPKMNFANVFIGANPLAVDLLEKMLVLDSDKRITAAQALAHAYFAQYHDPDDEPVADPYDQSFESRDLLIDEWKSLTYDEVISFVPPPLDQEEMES

pIC50 [1]: 7.85
pIC50 [2]: 8.40
SMILES: Cc1cc(F)ccc1Nc1ccc(C(=O)c2ccccc2C)c(Cl)c1

IC50 [1]: 226 nM
pIC50 [2]: 6.80
SMILES: Nc1ccccc1Nc1ccc(C(=O)c2ccccc2)cc1

pIC50 [1]: 7.85
pIC50 [2]: 8.40
SMILES: Cc1ccccc1C(=O)c1ccc(Nc2ccccc2N)cc1Cl

SMILES: Cc1cc(S(N)(=O)=O)ccc1NC(=O)COc1ccc(Cl)cc1C(=O)c1cccc(C#N)c1
pIC50 [3]: > 8.00
pIC50 [4]: > 8.00
pIC50 [5]: > 8.00
pIC50 [6]: > 8.00
pIC50 [7]: > 8.00
pIC50 [8]: > 8.00
pIC50 [9]: > 8.00
pIC50 [10]: > 8.00
pIC50 [11]: > 8.00
pIC50 [12]: > 8.00
pIC50 [13]: > 8.00
pIC50 [14]: > 8.00
pIC50 [15]: > 8.70
pIC50 [16]: > 8.00
pIC50 [17]: > 8.00
pIC50 [18]: > 8.00
pIC50 [19]: > 8.00

SMILES: Cc1cc(OCCCS(N)(=O)=O)ccc1NC(=O)COc1ccc(Cl)cc1C(=O)c1cc(F)cc(C(F)(F)F)c1
pIC50 [3]: > 8.00
pIC50 [4]: > 8.00
pIC50 [5]: > 8.00
pIC50 [6]: > 8.00
pIC50 [7]: > 8.00
pIC50 [8]: > 8.00
pIC50 [9]: > 8.00
pIC50 [10]: > 8.00
pIC50 [11]: > 8.00
pIC50 [12]: > 8.00
pIC50 [13]: > 8.00
pIC50 [14]: > 8.00
pIC50 [15]: > 8.70
pIC50 [16]: > 8.00
pIC50 [17]: > 8.00
pIC50 [18]: > 8.00
pIC50 [19]: > 8.00

SMILES: Cc1cc(S(N)(=O)=O)ccc1NC(=O)COc1ccc(Cl)cc1C(=O)c1cc(F)cc(C(F)(F)F)c1
pIC50 [3]: > 8.00
pIC50 [4]: > 8.00
pIC50 [5]: > 8.00
pIC50 [6]: > 8.00
pIC50 [7]: > 8.00
pIC50 [8]: > 8.00
pIC50 [9]: > 8.00
pIC50 [10]: > 8.00
pIC50 [11]: > 8.00
pIC50 [12]: > 8.00
pIC50 [13]: > 8.00
pIC50 [14]: > 8.00
pIC50 [15]: > 8.70
pIC50 [16]: > 8.00
pIC50 [17]: > 8.00
pIC50 [18]: > 8.00
pIC50 [19]: > 8.00

pIC50 [20]: 6.74
SMILES: O=C(c1ccccc1O)c1cc(Br)ccc1O

pIC50 [1]: 7.85
pIC50 [2]: 8.40
SMILES: Cc1ccccc1C(=O)c1ccc(Nc2ccc(Br)cc2N)cc1Cl

pIC50 [21]: 7.85
SMILES: COc1ccc(C#CC(C)(C)N)cc1C(=O)c1ccc(Nc2ccc(F)cc2F)cc1

pIC50 [22]: 5.03
SMILES: Cc1cccc(C(=O)c2ccc(OCC(=O)NNC(=O)C3CN(Cc4ccccc4)CCO3)c(C)c2)c1 (centres undefined)

pIC50 [21]: 7.57
SMILES: Cc1cc(C(=O)NC2CC2)ccc1-c1ccc(C(=O)c2cccc(CCC(O)CO)c2)cc1 (centres undefined)

SMILES: O=C(COc1ccc(C(=O)c2ccccc2)cc1)c1ccc(Cl)c(Cl)c1
IC50 [23]: 1.19 µg/mL (≈ 3.09 µM)

pEC50 [24]: 8.54
SMILES: Cc1cc(C)cc(C(=O)c2cc(Cl)ccc2OC(C)C(=O)Nc2ccc(S(N)(=O)=O)cc2)c1 (centres undefined)

pIC50 [22]: 5.15
SMILES: Cc1cc(C(=O)c2cccc(Br)c2)ccc1OCC(=O)NNC(=O)C1CN(Cc2ccccc2)CCO1 (centres undefined)

pIC50 [25]: 7.68
SMILES: CN(C)CCN(C)C(C(=O)Nc1ccc(NC(=O)/C=C/c2ccc(-c3ccc([N+](=O)[O-])cc3)o2)cc1C(=O)c1ccccc1)c1ccccc1 (centres undefined)
ED50 [26]: 16 mg/kg
pIC50 [27]: 7.49

pEC50 [24]: 8.38
SMILES: Cc1cccc(C(=O)c2cc(Cl)ccc2OCC(=O)Nc2ccc([N+](=O)[O-])cc2C)c1

pIC50 [28]: 5.80
pIC50 [29]: 5.80
SMILES: COc1ccc(C(=O)c2ccc(OCC(=O)N3CCC(CCCC4CCN(C(=O)c5ccc(Cl)cc5)CC4)CC3)cc2)c(OC)c1

SMILES: O=C(c1ccccc1)c1cccc(NC(=O)c2ccc(-c3cccc(O)c3)o2)c1
Activity [30]: 88%
Activity [31]: 84%

SMILES: COc1ccc(-c2csc(NC(=O)COc3ccc(C(=O)c4ccc(F)cc4C)cc3C)n2)cc1
pIC50 [32]: 5.30
pIC50 [33]: 5.30

pIC50 [28]: 5.80
pIC50 [29]: 5.80
SMILES: COc1ccc(C(=O)c2ccc(OCC(=O)N3CCC(CCCC4CCN(C(=S)c5ccc(Cl)cc5)CC4)CC3)cc2)c(OC)c1

SMILES: CC(C)(C)c1[nH]cnc1/C=c1\[nH]c(=O)/c(=C/c2ccccc2)[nH]c1=O [PLINABULIN]
pIC50 [34]: 8.00
